From patent EP3114111B1, “BICYCLIC PYRROLE DERIVATIVES USEFUL AS AGONISTS OF GPR120” (Janssen Pharmaceutica NV, priority 2014, dated 2015)

Legend:
C57bl6 Mouse = test: GPR120 C57bl6 Mouse IPGTT; assay type: in vivo, C57bl/6J Mice
Protocol: Male, C57bl/6J Mice were ordered in at 8 weeks of age from Jackson Labs. Individual mice weighed anywhere in the range of 25-30 grams on study day. The mice were fasted, with removal of food occurring at 7am on the morning of the study. Animals were moved into the room at 10:00am, to give them time to acclimate. Glucose (insulin syringes) was drawn up either the night before or the morning of the study. Glucose was dosed (IP) at 1.5g/kg at 7.5ml/kg (20% glucose straight TEKNOVA, 250ml sterile bottle w/ catalogue number G0525). Test compounds were kept spinning and were only drawn into the syringes prior to study commencement. Animals were bled via tail snip to determine basal glucose levels prior to dosing of treatments. An Ascensia BREEZE Blood Glucose Monitoring System by Bayer (using unique 10-test disks) was used for determining glucose levels. The bleeds started at approximately 12:45pm and dosing started, at 1-minute intervals, immediately after. All groups were dosed 30 minutes prior to glucose administration at a dose volume of 10ml/kg (the dose volume was calculated separately for each individual animal). Thirty minutes after the first dose animals were bled again for a second baseline, or T=0, and immediately dosed with glucose via an i.p. injection. The exact dose volume for glucose was also calculated separately for each individual animal. Glucose measurements were taken at -30min prior to compound dose, at t=0 (immediately prior to glucose dose), and at 15, 30, 45, 60, 90min post glucose dose.
Glucose values were entered into an Excel sheet and graphed in GraphPad Prism. The following were calculated from Prism: Change from -30 to 0 BSLN Glucose, Raw Glucose AUC -30 to 90min, Delta Glucose AUC -30 to 90min, Raw Glucose AUC 0 to 90min, Delta Glucose AUC 0 to 90min.

DIO Mice = test: GPR120 DIO Mice OGTT Screening; assay type: in vivo, C57BI6 mice; conditions: for DIO Lowering Glucose AUC: DIO mice OGTT; for Lowering Glucose AUC: DIO Dose Response
Protocol: 18-22 week old, C57BI6 mice on a high fat diet (60% HFD) for 12-16 weeks (ave. body weight ∼ 37-41g) were fasted for 6hr, with removal of food occurring at 7 am on the morning of the study. The animals were sorted into treatment groups the day before the study by body weight. Animals outside the bounds of ∼30-50g were left out of the study. The animals had been handled and shammed a total of 5-8 days (1-3 days immediately prior to the study). Glucose (in 1ml syringes) was drawn up the morning of the study. Test compounds were kept spinning and were only drawn into 1ml syringes prior to study commencement. Animals were bled via tail snip to determine basal glucose levels prior to dosing of treatments. An Ascensia BREEZE Blood Glucose Monitoring System by Bayer was used for determining glucose levels.
Animals were moved into the testing room at ∼9-11am, to yield them time to acclimate. The bleeds and dosing started at approximately 1pm in 30-second intervals per animal. All groups were dosed 30 minutes prior to glucose administration at a dose volume of 10ml/kg (the dose volume was calculated separately for each individual animal). Test compounds were administered at two or more of the following dosages: 0.1 mg/kg, 0.3 mg/kg, 1 mg/kg, 3 mg/kg, 10 mg/kg and 30 mg/kg.
Thirty minutes after the first dose (with test compound) animals were bled again for a second baseline, or T=0, and immediately dosed with glucose (20% solution; TEKNOVA, 250ml sterile bottle w/ catalogue number G0525) via a PO injection. The exact dose volume for glucose was also calculated separately for each individual animal.
Blood glucose was measured at 15, 30, 45, 60, and 90 minutes post-glucose administration via the snipped tail. If an animal reached a value of "HI", the upper limit of the glucometer (600mg/dl) was substituted as the blood glucose value and the study was analyzed as normal with no exclusions. If 50% or more of any treatment group reaches a "HI" value at least once, the study was considered invalid and repeated. Glucose values were typed into an EXCEL spreadsheet where they were used to calculate glucose AUC and delta AUC post-compound and post-glucose. The glucose excursion curves and the different versions of the AUC's were graphed in GraphPad Prism 5.
Note: All statistics completed in this study were completed using the statistical software package GraphPad Prism 5. Standard procedures for analyzing data sets from screening GPR120 compounds in DIO mouse OGTT's were as listed here below. In addition to the statistics that were run using GraphPad Prism 5, Microsoft Excel was used to calculate the percent changes in AUC from vehicle groups as detailed below.
Change from -30 to 0 BSLN Glucose, Raw Glucose AUC -30 to 90min, Delta Glucose AUC -30 to 90min, Raw Glucose AUC 0 to 90min, Delta Glucose AUC 0 to 90min were analyzed using Column Statistics Analysis, with mean values used to calculate % change from the vehicle mean group, as well as mean, SEM and / or % change from vehicle, where appropriate; and using One-Way ANOVA w/ a Tukey Post-Test (Comparing All Pairs of Columns) with each treatment group examined to see if it was statistically significant compared to vehicle (*= P<0.05, **= P<0.01, ***= P<0.001).

SMILES | GPR120 C57bl6 Mouse IPGTT Results (C57bl6 Mouse; 10.0 mg/kg) | DIO Lowering Glucose AUC (DIO Mice; 3 mg/kg) | DIO Lowering Glucose AUC (DIO Mice; 10 mg/kg) | other results
Cc1c(CCC(=O)O)ccc(OCc2cccn2-c2ccc(Cl)cc2)c1C [Compound 1, 3-(4-{[1-(4-Chlorophenyl)-1H-pyrrol-2-yl]methoxy}-2,3-dimethylphenyl)propanoic acid] | – | – | – | GPR120 C57bl6 Mouse IPGTT Results (C57bl6 Mouse; 30.0 mg/kg): not different from vehicle
COc1ccc(-n2ccc(C(F)(F)F)c2COc2ccc(CCCO)c(F)c2F)cc1 [Compound 27, 3-(2,3-Difluoro-4-{[1-(4-methoxyphenyl)-3-(trifluoromethyl)-1H-pyrrol-2-yl]methoxy}phenyl)propan-1-ol] | -16 | – | – | –
OCCCc1cc(F)c(OCc2c(C(F)(F)F)ccn2-c2ccc(Br)cc2)c(F)c1 [Compound 30, 3-(4-{[1-(4-Bromophenyl)-3-(trifluoromethyl)-1H-pyrrol-2-yl]methoxy}-3,5-difluorophenyl)propan-1-ol] | -53 | – | – | C57bl6 Mouse IPGTT dose response (C57bl6 Mouse; 1 mg/kg): 1%; C57bl6 Mouse IPGTT dose response (C57bl6 Mouse; 3 mg/kg): -14%; C57bl6 Mouse IPGTT dose response (C57bl6 Mouse; 10 mg/kg): -48%
COc1ccc(-n2ccc(C(F)(F)F)c2COc2c(F)cc(CCCO)cc2F)cc1 [Compound 31, 3-(3,5-Difluoro-4-{[1-(4-methoxyphenyl)-3-(trifluoromethyl)-1H-pyrrol-2-yl]methoxy}phenyl)propan-1-ol] | -43 | – | – | C57bl6 Mouse IPGTT dose response (C57bl6 Mouse; 1 mg/kg): 2%; C57bl6 Mouse IPGTT dose response (C57bl6 Mouse; 3 mg/kg): -39%; C57bl6 Mouse IPGTT dose response (C57bl6 Mouse; 10 mg/kg): -44%
CCc1ccc(-n2ccc(C(F)(F)F)c2COc2c(F)cc(CCCO)cc2F)cc1 [Compound 33, 3-(4-{[1-(4-Ethylphenyl)-3-(trifluoromethyl)-1H-pyrrol-2-yl]methoxy}-3,5-difluorophenyl)propan-1-ol] | -26 | – | – | –
CCc1ccc(-n2ccc(C(F)(F)F)c2COc2ccc(CCC(=O)O)c(F)c2F)cc1 [Compound 34, 3-(4-{[1-(4-Ethylphenyl)-3-(trifluoromethyl)-1H-pyrrol-2-yl]methoxy}-2,3-difluorophenyl)propanoic acid] | – | -27% | -50% | –
Cc1ccc(-n2ccc(C(F)(F)F)c2COc2c(F)cc(CCCO)cc2F)cc1 [Compound 37, 3-(3,5-Difluoro-4-{[1-(4-methylphenyl)-3-(trifluoromethyl)-1H-pyrrol-2-yl]methoxy}phenyl)propan-1-ol] | -30 | – | – | –
Cc1ccc(-n2ccc(C(F)(F)F)c2COc2c(F)cc(CCC(=O)O)cc2F)cc1 [Compound 39, 3-(3,5-Difluoro-4-{[1-(4-methylphenyl)-3-(trifluoromethyl)-1H-pyrrol-2-yl]methoxy}phenyl)propanoic acid] | – | -59% | -68% | –
O=C(O)CCc1cc(F)c(OCc2c(C(F)(F)F)ccn2-c2ccc(Cl)cc2)c(F)c1 [Compound 70, 3-(4-{[1-(4-Chlorophenyl)-3-(trifluoromethyl)-1H-pyrrol-2-yl]methoxy}-3,5-difluorophenyl)propanoic acid] | – | -79% | -82% | Lowering Glucose AUC (DIO Mice; 0.1 mg/kg): 9%; Lowering Glucose AUC (DIO Mice; 0.3 mg/kg): -8%; Lowering Glucose AUC (DIO Mice; 1.0 mg/kg): -54%; Lowering Glucose AUC (DIO Mice; 3.0 mg/kg): -73%
